Values joined by “and” are separate entries in the source; they are usually repeats but may differ in a detail not shown here. Equal entries are not always repeated.
Columns and labels:
[1] = system: VEGF; test: Western blot and IHC of VEGF in tumor tissue; assay type: in vivo, athymic nude mice; settings: after 3 weeks of therapy; western blot; vs saline control
From the text: Dynamic contrast-enhanced (DCE) MRI is a non-invasive imaging technique that is able to quantify the anatomical and physiological progression of tumor angiogenesis in response to a variety of different cancer therapies. In order to allow for the safe use of macromolecular contrast medium, a novel polydisulfide-based agent, poly([(Gd-DOTA)-DETA]-co-DTBP) (GODP) was designed, which initially starts as a macromolecular agent during an DCE-MRI protocol, and is then gradually degraded by endogenous thiols in the reductive environment of the bloodstream to improve renal clearance. In this study, two groups of 3 mice, bearing flank HT29 colon cancer xenografts, were treated daily with either bumetanide or saline for a total of 3 weeks. DCE-MRI was performed before and after the start of treatment on a weekly basis, and the collected was analyzed using the adiabiatic approximation to the tissue homogeneity (AATH) model. IHC and western blot analysis was performed to study the changes in CD31, VEGF, and tissue hypoxia. […] Image J software was utilized to quantify the relative protein expression of HIF-1α from the blots by calculating the total pixel intensity from each protein band, and then normalizing these signals with its corresponding β-actin stain. […]

[2] = system: Ki67; test: IHC stain for Ki67 proliferation marker in tumor tissue; assay type: in vivo, athymic nude mice; settings: after 3-week therapy, mean±SD
Experimental: Once the final DCE-MRI scans were complete at the end of the therapy, the mice were intravenously injected with 60 mg/kg of pimonidazole, an established marker for the detection of tissue hypoxia. After one hour following the pimonidazole staining, the tumors from these mice were resected for further biological analysis. Half of each tumor that was collected was snap-frozen in liquid nitrogen for western blot, while the other half was sliced into thin sections and formalin-fixed/paraffin-imbedded for immunohistochemistry (IHC) staining. For western blot, cell lysates from the frozen tissue were prepared by homogenizing entire tumor tissues in RIPA lysis buffer supplemented with a Halt protease inhibitor cocktail (Thermo Fisher Scientific). […] Image J software was utilized to quantify the relative protein expression of HIF-1α from the blots by calculating the total pixel intensity from each protein band, and then normalizing these signals with its corresponding β-actin stain. […]
Despite the fact that bumetanide inhibited angiogenesis and induced vascular regression, the therapy was not able to slow down the tumor growth rate over the course of the study. […] A Ki67 index was calculated by determining the percentage of nuclei in a given area of the tissue expressed this factor.

[3] = system: HIF-1α; test: Western blot of HIF-1α in tumor tissue; assay type: in vivo, athymic nude mice; settings: after 3 weeks of therapy, vs saline control
Experimental: (§1) Once the final DCE-MRI scans were complete at the end of the therapy, the mice were intravenously injected with 60 mg/kg of pimonidazole, an established marker for the detection of tissue hypoxia. After one hour following the pimonidazole staining, the tumors from these mice were resected for further biological analysis. Half of each tumor that was collected was snap-frozen in liquid nitrogen for western blot, while the other half was sliced into thin sections and formalin-fixed/paraffin-imbedded for immunohistochemistry (IHC) staining. For western blot, cell lysates from the frozen tissue were prepared by homogenizing entire tumor tissues in RIPA lysis buffer supplemented with a Halt protease inhibitor cocktail (Thermo Fisher Scientific). […] The blots were blocked for 1 hr and then stained overnight at 4° C. with primary antibodies for HIF-1α and β-actin, the latter of which serving as the housekeeper control. Image J software was utilized to quantify the relative protein expression of HIF-1α from the blots by calculating the total pixel intensity from each protein band, and then normalizing these signals with its corresponding β-actin stain. Sections of the formalin-fixed tissue were stained with the antibodies for CD31 and the Ki67 nuclear proliferation marker. They were also stained with a primary antibody for the detection of the pimonidazole hypoxia marker. […]

[4] = system: N1-S1 hepatoma; test: Additional comparison study, hepatocellular rat model, TAE combined with anti-glycolytic agents (Example 2); assay type: in vivo, Sprague Dawley rats; settings: over four weeks
Experimental: To determine if anti-glycolytic agents (AG) combined with transarterial embolization (TAE) improves treatment of an N1-S1 tumor model implanted in Sprague-Dawley rat livers. The animal experiments were approved by the Institutional Animal Care and Use Committee. […] The agents were slowly injected within 2 minutes. […] Tumor volume (V) was calculated by the formula: V=0.5*L*W*H. Relative tumor volume after treatment was calculated as the percentage of pre-treatment tumor volume. Kruskal-Wallis test with Minitab 16 was used to compare the difference of relative tumor volume between 4 groups on each observation time point.

[5] = system: CD31; test: IHC stain for CD31 in tumor tissue; assay type: in vivo, athymic nude mice; settings: after 3-week therapy, tumor periphery and core, vs saline control
Experimental: as §1

[6] = system: HT29 colon cancer xenografts; test: DCE-MRI with GODP, AATH model, tumor vascularity; assay type: in vivo, athymic nude mice; settings: 3-week time point; 10 mg/kg i.p. daily; entire tumor; mean±SD
From the text: Dynamic contrast-enhanced (DCE) MRI is a non-invasive imaging technique that is able to quantify the anatomical and physiological progression of tumor angiogenesis in response to a variety of different cancer therapies. In order to allow for the safe use of macromolecular contrast medium, a novel polydisulfide-based agent, poly([(Gd-DOTA)-DETA]-co-DTBP) (GODP) was designed, which initially starts as a macromolecular agent during an DCE-MRI protocol, and is then gradually degraded by endogenous thiols in the reductive environment of the bloodstream to improve renal clearance. In this study, two groups of 3 mice, bearing flank HT29 colon cancer xenografts, were treated daily with either bumetanide or saline for a total of 3 weeks. DCE-MRI was performed before and after the start of treatment on a weekly basis, and the collected was analyzed using the adiabiatic approximation to the tissue homogeneity (AATH) model. IHC and western blot analysis was performed to study the changes in CD31, VEGF, and tissue hypoxia.
The anti-angiogenic effects of bumetanide were investigated in a mouse model bearing subcutaneous HT29 colon adenocarcinoma xenografts. HT29 cells were initially cultured in McCoy's 5A growth media (ATCC), supplemented with 10% FBS, […] of streptomycin, and 100 units/mL of penicillin (Invitrogen). A total of 1×10^6 cells were then inoculated into athymic nude mice in a 250 μL volume of Matrigel (BD Biosciences). Before the start of treatment, tumors were allowed to grow for 10 days, until they were approximately 0.5 cm in diameter. This study comprised of 2 groups of 3 mice, one of which was treated with bumetanide, and the other with a saline control. […] Tumor growth was measured at several time points during the therapy with a caliper. Volumes were calculated using the formula […], where D1 and D2 were two diameters measured along perpendicular axes of the tumor lesion.
Changes in the tumor vascularity were monitored during the treatment by DCE-MRI. […]

[7] = system: HT29 colon adenocarcinoma xenografts; test: Tumor growth measured with a caliper; assay type: in vivo, athymic nude mice; settings: any point during the 3-week administration period
Experimental: The anti-angiogenic effects of bumetanide were investigated in a mouse model bearing subcutaneous HT29 colon adenocarcinoma xenografts. HT29 cells were initially cultured in McCoy's 5A growth media (ATCC), supplemented with 10% FBS, […] of streptomycin, and 100 units/mL of penicillin (Invitrogen). A total of 1×10^6 cells were then inoculated into athymic nude mice in a 250 μL volume of Matrigel (BD Biosciences). Before the start of treatment, tumors were allowed to grow for 10 days, until they were approximately 0.5 cm in diameter. This study comprised of 2 groups of 3 mice, one of which was treated with bumetanide, and the other with a saline control. The drug and saline control were injected intraperitoneally on a daily basis for 3 weeks, with a bumetanide dose of 10 mg/kg. All mice were sacrificed on day 21 of the treatment regimen. Tumor growth was measured at several time points during the therapy with a caliper. Volumes were calculated using the formula […], where D1 and D2 were two diameters measured along perpendicular axes of the tumor lesion.

[8] = system: HT29 colon cancer xenografts; test: Pimonidazole staining of tumor hypoxia; assay type: in vivo, athymic nude mice; settings: after 3-week therapy; vs saline control
Experimental: as §1

SMILES	VEGF protein levels lower than in control tumors [1]	Ki67 index (percentage of nuclei expressing Ki67) [2]	HIF-1α expression greater than in control tumors [3]	relative tumor volume comparing the different treatments (FIG. 25) [4]	CD31 expression [5]	average decrease in Fp (blood flow rate) between pre- and post-treatment levels [6]	average reduction in PS (permeability-surface area product) from pre-treatment level [6]	average reduction in Vp (fractional plasma volume) from pre-treatment level [6]	tumor size versus saline control [7]	tumor hypoxia (pimonidazole staining intensity) [8]
CCCCNc1cc(C(=O)O)cc(S(N)(=O)=O)c1Oc1ccccc1 [bumetanide, 3-butylamino-4-phenoxy-5-sulfamoyl-benzoic acid]	42.9%	~24.7±4.51%	59.1% and 59.2%	effective at reducing tumor volume	significant decrease	71.2±8.01%	72.2±9.26%	75.6±8.97%	no significant difference	increase
O=C(O)/C=C/c1ccc(O)c(O)c1 [caffeic acid]	–	–	–	effective at reducing tumor volume	–	–	–	–	–	–
COc1cc(/C=C/C(=O)O)ccc1O [ferulic acid]	–	–	–	effective at reducing tumor volume	–	–	–	–	–	–

Source: patent US10172815B2, “Targeted treatment of anerobic cancer” (UNIVERSITY HOSPITALS CLEVELAND MEDICAL CENTER, priority 2013, dated 2019)
